According to patent US8314126B2, “Disubstituted phenylpiperdines/piperazines as modulators of dopamine neurotransmission” (NSAB, Filial af Neurosearch Sweden AB, Sverige, priority 2004, dated 2012):
Read-outs that look alike come from different tables or passages of the source.

What was measured:
[1] = tested on: DOPAC (3,4-dihydroxyphenylacetic acid) in the rat striatum; assay: Increase of DOPAC in the rat striatum (in vivo neurochemistry); settings: sc, read-out: ED50 DOPAC
Excerpt: After the behavioural activity sessions, the rats were decapitated and their brains rapidly taken out and put on an ice-cold petri-dish. The limbic forebrain, the striatum, the frontal cortex and the remaining hemispheral parts of each rat were dissected and frozen. Each brain part was subsequently analyzed with respect to its content of monoamines and their metabolites.
The monoamine transmitter substances (NA (noradrenaline), DA (dopamine), 5-HT (serotonin)) as well as their amine (NM (normethanephrine), 3-MT (3-methoxytyramine)) and acid (DOPAC (3,4-dihydroxylphenylacetic acid), 5-HIAA (5-hydroxyindoleacetic acid), HVA (homovamllic acid)) metabolites are quantified in brain tissue homogenates by HPLC separations and electrochemical detection
The analytical method is based on two chromatographic separations dedicated for amines or acids. Two chromatographic systems share a common auto injector with a 10-port valve and two sample loops for simultaneous injection on the two systems. Both systems are equipped with a reverse phase column (Luna C18(2), dp 3 μM, 50*2 mm i.d., Phenomenex) and electrochemical detection is accomplished at two potentials on glassy carbon electrodes (MF-1000, Bioanalytical Systems, Inc.). The column effluent is passed via a T-connection to the detection cell or to a waste outlet. This is accomplished by two solenoid valves, which block either the waste or detector outlet. By preventing the chromatographic front from reaching the detector, better detection conditions are achieved. […] Detection potentials relative to Ag/AgCl reference are 0.45 and 0.60V. […] Detection potentials relative to Ag/AgCl reference are 0.45 and 0.65V.
ED50 values for the increase of DOPAC in striatum are calculated by curve fitting.

[2] = Activity of compounds of Formula 1 (test not specified); settings: test not stated
[3] = Oral bioavailability in rat; format: in vivo; settings: plasma, 12.5 umol/kg, orally 12.5 μmol/kg vs intravenously 5 μmol/kg, ratio of AUC
Description: Experiments are performed 24 hours after implantation of arterial and venous catheters. Test compound is administered orally at 12.5 μmol/kg or intravenously at 5 μmol/kg using the venous catheters, n=3 per group. Arterial blood samples are then taken during six hours at 0, 3, 9, 27, 60, 120, 180, 240, 300 and, 360 minutes after administration of the test compound. The oral bioavailability was calculated as the ratio of the AUC (Area under curve) obtained after oral administration over the AUC obtained after intravenous administration for each rat. The parameter AUC was calculated according to the following: […]
AUC: the area under the plasma concentration versus time curve from time zero to the last concentration measured (Clast), calculated by the log/linear trapezoidal method.
The levels of test compound are measured by means of liquid chromatography-mass spectrometry (LC-MS) (Hewlett-Packard 1100MSD Series). The LC-MS module includes a quaternary pump system, vacuum degasser, thermostatted autosampler, thermostatted column compartment, diode array detector and API-ES spray chamber. Data handling was performed with a HP ChemStation rev.A.06.03. system. Instrument settings:MSD mode: Selected ion monitoring (SIM) MSD polarity: Positiv Gas temp: 350° C. Drying gas: 13.0 l/min Nebulizer gas: 50 psig Capillary voltage: 5000 V Fragment or voltage: 70 V
Analytical column: Zorbax eclipse XDB-C8 (4.6*150 mm, 5 μm) at 20° C. The mobile phase was acetic acid (0.03%) (solvent A) and acetonitrile (solvent B). The flow rate of the mobile phase was 0.8 ml/min. The elution was starting at 12% of solvent B isocratic for 4.5 min, then increasing linearity to 60% over 4.5 min.
Extractions procedure: Plasma samples (0.25-0.5 ml) were diluted with water to 1 ml, and 60 pmol (100 μl) internal standard (−)-OSU6241 was added. The pH was adjusted to 11 by the addition of 25 μl saturated Na2CO3. […] The selective ion (MH^+) was monitored for each Example, and MH^+ 296 for (−)-OSU6241 ((3-[3-(ethylsulfonyl)phenyl]-1-propylpiperidine). […]

[4] = Metabolic stability in rat liver microsomes; format: in vitro ADME; settings: 15 minutes incubation at 37° C., NADPH
Description: Rat liver microsomes were isolated as described by Forlin (1980) Tox Appl Pharm. 54(3) 420-430, with minor modifications e.g. 3 mL/g liver of a 0.1 M Na/K*PO4 buffer with 0.15M KCl, pH 7.4, (buffer 1) was added before homogenisation, the homogenate was centrifuged for 20 minutes instead of 15, the supernatant was ultracentrifuged at 100.000 g instead of 105.000 g and the pellet from the ultracentrifugation was resuspended in 1 mL/g liver of 20% v/v 87% glycerol in buffer 1.
1 μL of, 0.2 or 1 mM test substance diluted in water, and 10 μL 20 mg/mL rat liver microsome were mixed with 149 μL, 37° C. buffer 1 and the reaction was started by addition of 40 μL 4.1 mg/mL NADPH. After 0 or 15 minutes incubation at 37° C. in a heating block (LAB-LINE, MULTI-BLOK Heater or lab4you, TS-100 Thermo shaker at 700 rpm) the reaction was stopped by addition of 100 μL pure acetonitrile. […] The test compound was analysed using HPLC-MS (Hewlett-Packard 1100MSD Series) with a Zorbax SB-C18 column (2.1*150 mm, 5 μm) using 0.03% formic acid and acetonitrile as mobile phase (gradient) or a Zorbax Eclipse XDB-C18 (3*75 mm, 3.5 μm) using 0.03% acetic acid and acetonitrile as mobile phase (gradient). The 15 mM turnover was calculated as the fraction of test compound eliminated after 15 minutes, expressed in percent of 0 mM levels, i.e. 100*[conc test compound at 0 mM—concentration at 15 min]/cone at 0 mM. […]

[5] = tested on: levels of dopamine and norepinephrine in the cortex; assay: Microdialysis in awake and freely moving rats, cortex; format: in vivo, rat
Description: Remeron is injected (s.c.) at time-point 0. The values depicted in the graph represent percent of control in relation to baseline values. The microdialysis was performed in awake and freely moving rats. Error-bars=SEM
Example 2 is injected (s.c.) at time-point 0. The values depicted in the graph represent percent of control in relation to baseline values. The microdialysis was performed in awake and freely moving rats. Error-bars=SEM
Male Sprague-Dawley rats weighing 220-320 g were used throughout the experiments. Before the experiment the animals were group housed, five animals in each cage, with free access to water and food. The animals were housed at least one week after arrival prior to surgery and use in the experiments. Each rat was used only once for microdialysis.
We use a modified version (Waters, Lofberg et al. 1994) of the I-shaped probe (Santiago and Westerink 1990). […] Co-ordinates were calculated relative to bregma; dorsal striatum AP +1, ML ±2.6, DV −6.3; Pf cortex, AP +3.2, 8° ML ±1.2, DV −4.0 according to (Paxinos and Watson 1986). […]
30 μl of each sample was injected into the chromatograph. […] The currents generated by the two EC detectors are converted to digital data and evaluated using Chromelion software (Dionex, Sunnyvale, Calif.) on a PC. The method sample turn over time was 4.5 min and two parallel experiments are normally analysed simultaneously on the system. […]

[6] = tested on: MK-801 pre-treated rats; assay: Locomotor activity in MK-801 pre-treated rats; settings: MK-801 0.7 mg/kg i.p. alone, recorded between 30 and 60 minutes, ± SEM
[7] = increase of DOPAC in rat striatum after systemic administration (s.c.), maximal effects limited to 350-400% of control, range covers 95% of fits

Q: Which ED50 [1, 7] does the source give for `CCN1CCC(c2cccc(C(=O)C(F)(F)F)c2F)CC1` here?
A: Its ED50 is 12 µmol/kg.

Q: For `CCCN1CCC(c2cccc(S(C)(=O)=O)c2C(F)(F)F)CC1` [4-[3-(methylsulfonyl)-2-(trifluoromethyl)phenyl]-1-propylpiperidine], which activity [2] is on record?
A: The activity was “inactive”.

Q: For `CCCN1CCC(c2cccc(S(C)(=O)=O)c2F)CC1` [Example 1, 4-[2-FLUORO-3-(METHYLSULFONYL)PHENYL]-1-PROPYLPIPERIDINE], which bioavailability [3] is on record?
A: The bioavailability was roughly 100%.

Q: For `CCN1CCC(c2cccc(S(C)(=O)=O)c2F)CC1` [Example 2, 1-ETHYL-4-[2-FLUORO-3-(METHYLSULFONYL)PHENYL]-PIPERIDINE], which “turnover at 15 minutes” value [4] is on record?
A: The value was 1%.

Q: What about the bioavailability [3] of the same compound?
A: The bioavailability was 87%.

Q: What about the “levels of dopamine and norepinephrine in the cortex” value ([5]; 50 μmol/kg s.c., pf. cortex, FIG. 2) of the same compound?
A: The value was “elevate the levels of dopamine and norepinephrine in the cortex”.

Q: With `CCCN1CCC(c2cccc(C(F)(F)F)c2C#N)CC1` [Example 7, 2-(1-PROPYLPIPERIDIN-4-YL)-6-(TRIFLUOROMETHYL)BENZONITRILE] as the compound, how does the bioavailability [3] read?
A: Its bioavailability is 29%.

Q: For `C[C@]12N[C@H](Cc3ccccc31)c1ccccc12` [MK-801], which “Locomotor activity, MK-801” value [6] is on record?
A: Its value is 51333 ± 2148 counts/30 min.

Q: For `CCN1CCC(c2cccc(S(C)(=O)=O)c2F)CC1` [drawing 10], which ED50 [1, 7] is on record?
A: Its ED50 is 68 µmol/kg.

Q: Which ED50 [1, 7] does the source give for `COCCN1CCC(c2cccc(S(C)(=O)=O)c2F)CC1` [drawing 12] here?
A: The ED50 was 84 µmol/kg.

Q: Which “extracellular norepinephrine and dopamine in the cortex” value ([5]; 10 mg/kg s.c., cortex, FIG. 1) does the source give for `CN1CCN2c3ncccc3Cc3ccccc3C2C1` (stereo not shown) [mirtazapine, reference compound] here?
A: The value was “increase predominantly extracellullar norepinephrine and dopamine in the cortex”.

Q: Which ED50 [1, 7] does the source give for `COCCN1CCC(c2cccc(S(C)(=O)=O)c2)CC1` [reference compound] here?
A: The ED50 was 208 µmol/kg.

Q: With `CCCN1CCC(c2cccc(C(F)(F)F)c2)CC1` [reference compound] as the compound, how does the ED50 ([1]; Rattus norvegicus) read?
A: Its ED50 is 84 µmol/kg.
